Results: PMC9820430, “New Affordable Methods for Large-Scale Isolation of Major Olive Secoiridoids and Systematic Comparative Study of Their Antiproliferative/Cytotoxic Effect on Multiple Cancer Cell Lines of Different Cancer Origins” (International Journal of Molecular Sciences, 2022)
Read-outs that look alike come from different tables or passages of the source.

Legend:
[1] = system: three breast cancer cell lines (MDA-MB-231, SK-BR-3 and MCF-7); experiment: ATP-based luminescence cell viability assay, breast panel; design: species or system human; conditions: Homo sapiens; MDA-MB-231, SK-BR-3 and MCF-7; 72 h
Procedure: (§1) The antiproliferative/cytotoxic effects of the selected OOPs on each cell line were assessed by measuring the cellular ATP levels after 72 h treatments using an ATP-based luminescence assay. This assay, initially developed as a tumor chemosensitivity assay, has shown considerable promise as a general in vitro toxicity assay due to its high sensitivity that allows the detection of a small number of cells. Consequently, it can be applied to both cancer cell lines and primary tissue cells. […] The EC50 values were calculated by nonlinear regression (curve fit) using a sigmoidal dose–response equation (Figure 2A and Figure S2).
The calculated EC50 values ranged between 9.1–100 μΜ (Table 1). The bioactivity of the oleocanthalic acid (7), studied here for the first time for its antiproliferative/cytotoxic activity, was initially evaluated systematically in the three breast cancer cell lines using a concentration range of 10–100 μM. In all cases, the viability measured was ≥80%, predicting EC50 values > 100 μΜ. […] For this reason, oleocanthalic acid (7) was excluded from the rest of this study.
(§2) The OOPs tested in this study were first dissolved in an appropriate DMSO volume such as to prepare a final stock solution of 50 mM, which was further used to prepare various compound concentrations in DMSO-based solutions. The final DMSO concentration in the cell culture was maintained constant in all treated groups of any given experiment and never exceeded the value of 0.2% (v/v). For the treatment experiments, cells were plated in 96-well culture plates, in 100 μL of complete medium at a seeding density of 5000–10,000 cells/well—depending on cells’ size and doubling time—and were allowed to adhere overnight (~16 h). The next day, 150 μL of complete medium was added to each well and the cells were treated with various concentrations of OOPs. Each concentration was tested in triplicate and was repeated 2–3 times. To prepare the final concentration solutions, 0.5 μL of a 500× stock of each tested compound in DMSO was added directly into each well in a final volume of 250 μL culture medium and was gently mixed by pipetting. Control wells were prepared under the same experimental conditions by adding only DMSO at a final concentration of 0.2% (v/v). Compounds were not renewed during the entire period of cell exposure. All cells were cultured at 37 °C in a 5% (v/v) CO2 for 24, 48 or 72 h.
Briefly, after the treatment with OOPs, the adapted medium was removed from the dish wells and the cells were washed twice with medium without FBS. Then, the C-lysis (LT27-076) was diluted in PBS (1:2) and a volume of 50 μL was added to each well. […] Cell viability was quantified by measuring luminescence using a multi-mode microplate reader Safire^2 Tecan (software Magellan V6.00 STD.2PC WIN.20000/XP).

MCF-7 [2] = experiment: EdU incorporation cell proliferation assay, 24 h; assay type: cell-based, human; conditions: for % EdU +ve ± SE (S-phase cells): 24 h treatment at EC50 concentration
Procedure: For this purpose, ten cancer cell lines (i.e., MDA-MB 231, SK-BR-3, MCF-7, A2058, SK-MEL-28, AGS, HepG-2, PANC-1, H1299 and Hela) originating from breast, melanoma, stomach, hepatic, pancreatic, lung and cervical tumors were analyzed in parallel with control samples (i.e., the same cells treated only with 0.2% (v/v) DMSO). […] Subsequently, the treated cells were allowed to incorporate 5-ethynyl-2′-deoxyuridine (EdU) into replicating DNA according to the protocol described in detail in the Experimental Section. […] In this study, after EdU incorporation, the nuclei of the entire cell population were stained with Hoechst and imaged by confocal microscopy (Experimental Section). EdU-positive nuclei, marked by green FL, as well as the total number of nuclei, marked by blue FL, were enumerated by applying the Icy image analysis algorithm on the digital images acquired by confocal microscopy.
Human cancer cells were plated onto sterile glass coverslips (10-mm diameter, 5161063, ThermoFisher Scientific, Waltham, MA, USA) in 24-well tissue culture plates, at a density 5 times the density of cells seeded in 96-well plate and at a final medium volume of 500 μL. In order to obtain homogeneous plating, 250 μL of the medium was added directly to the wells already containing coverslips. Using a tip perpendicularly, coverslips were pressed in order to ensure their attachment to the bottom of the well. The cells were then seeded by adding 250 μL of single-cell suspension drop by drop following a cross path. Immediately after seeding, the plate was shaken back and forth at least ten times to achieve homogeneous plating. The cells were allowed to adhere overnight (~16 h) at 37 °C and 5% (v/v) CO2. The next day, a volume of 500 μL fresh medium was added to each well and the treatment with OOPs was initiated by adding directly to the wells 2 μL of OOPs from the 500× stock in DMSO and immediately mixed afterward by pipetting. […] Control cells were prepared under the same experimental conditions using DMSO instead of the OOPs’ solutions in DMSO at the same final concentration (0.2% (v/v) DMSO). […]

MCF-7 [3] = conditions: cited from earlier work
[4] = system: sixteen human cancer cell lines originating from eight different tissues; experiment: ATP-based luminescence cell viability assay, whole panel; conditions: for Bioactivity range on cancer cell lines (grade in words): Figure 3, sixteen cancer cell lines; for EC50: 72 h treatment
Procedure: as §1, §2
Briefly, after the treatment with OOPs, the adapted medium was removed from the dish wells and the cells were washed twice with medium without FBS. Then, the C-lysis (LT27-076) was diluted in PBS (1:2) and a volume of 50 μL was added to each well. Cells were incubated with C-lysis for at least 10 min. Finally, an equal volume of lysed cells from each well and ATP monitoring reagent (AMR; LT27-212) was transferred to the wells of a white-walled illuminometer plate (Greiner bio-one; 655074). Cell viability was quantified by measuring luminescence using a multi-mode microplate reader Safire^2 Tecan (software Magellan V6.00 STD.2PC WIN.20000/XP).

HaCaT cells = system: HaCaT cells; design: method as in PMID 27878290, PMID 35630786; conditions: cited from earlier work
WJ-MSC = experiment: ATP-based luminescence cell viability assay (ViaLight), 72 h; design: species or system human; conditions: WJ-MSC (mesenchymal cells), 72 h treatment, read-out: EC50 Values of Olive Oil Polyphenols
Procedure: The antiproliferative/cytotoxic effects of the selected OOPs on each cell line were assessed by measuring the cellular ATP levels after 72 h treatments using an ATP-based luminescence assay [73]. […] The EC50 values were calculated by nonlinear regression (curve fit) using a sigmoidal dose–response equation (Figure 2A and Figure S2).
Briefly, after the treatment with OOPs, the adapted medium was removed from the dish wells and the cells were washed twice with medium without FBS. Then, the C-lysis (LT27-076) was diluted in PBS (1:2) and a volume of 50 μL was added to each well. Cells were incubated with C-lysis for at least 10 min. […] Cell viability was quantified by measuring luminescence using a multi-mode microplate reader Safire^2 Tecan (software Magellan V6.00 STD.2PC WIN.20000/XP).

MDA-MB 231 = experiment: ATP assay under 1% (v/v) O2 versus 20% (v/v) O2, 72 h; assay type: cell-based, human; conditions: 1% (v/v) O2 vs 20% (v/v) O2
Procedure: The effects of drugs on cancer cell lines are usually tested under atmospheric conditions (20% (v/v) O2). However, the O2 content in tissues (normoxia) and solid tumors (hypoxia) is ≤ 5% (v/v). In some tumors (i.e., pancreatic tumors) the % O2 is even ≤ 1% (v/v). This affects cell metabolism and signaling pathways which depend on the hypoxia-induced Factor 1A (HIF1A) and it could affect the activity of certain drugs. […] The effects of these three OOPs were tested on the MDA-MB 231, SK-BR-3 and MCF-7 breast cancer and on the AGS stomach cancer cell lines.
Figure 6 Effect of O2 concentration on the antiproliferative/cytotoxic effect of OOPs. […] Cell viability was determined on (A) AGS, (B) MDA-MB 231, (C) MCF-7 and (D) SK-BR-3 cell lines using ATP-based luminescence assay. The results presented are from two independent experiments performed in triplicate. Bar graphs represent the mean cell count ± SE in each treatment group normalized to the control group (i.e., cells treated only with 0.2% (v/v) DMSO). * p < 0.05; ** p ≤ 0.01; *** p ≤ 0.001 (t-test) comparing the two different conditions.

[5] = Homo sapiens, range across cancer cell lines, read-out: EC50, range over the cancer cell lines

Compound | EC50 [1] | % EdU +ve ± SE (S-phase cells) (MCF-7 [2]) | EC50 (MCF-7 [3]; 48 or 72 h, different culture conditions, read-out: EC50) | Bioactivity range on cancer cell lines (grade in words) [4] | EC50 ([4]; Homo sapiens, most cancer cell lines, read-out: EC50 in most cancer cell lines) | EC50 [4, 5] | sensitivity of cells to treatment (HaCaT cells) | EC50 (WJ-MSC; Homo sapiens) | bioactivity under hypoxia versus atmospheric O2 (MDA-MB 231) | % Inhibition ± SE of cell proliferation (MCF-7 [2]; 24 h at EC50, normalized with the control) | EC50 (MCF-7 [3]; five days of treatment, ref Menendez et al. (2007) 17, read-out: concentration reducing cell viability by 50%) | EC50 (WJ-MSC) | EC50 ([4]; range across cancer cell lines, read-out: EC50, range over the cancer cell lines)
C/C=C(/C=O)[C@@H](CC=O)CC(=O)OCCc1ccc(O)cc1 [compound 1, oleocanthal] | 10.5 to 24.6 µM | 21.6 ± 4.0% | 18 to 40 µM | Very strong activity on 10/16 cancer cell lines | 9 to 20 µM | 9.1 to 44.6 µM | resistant | – | – | – | – | – | –
COC(=O)C1=COC(C)[C@@H](C=O)[C@@H]1CC(=O)OCCc1ccc(O)c(O)c1 (mixture of isomers) [3a,b, oleuropein aglycone] | 17.7 to 32.2 µM | 21.1 ± 2.0% | – | Very strong activity on 7/16 cancer cell lines | – | 11.9 to 50.1 µM | – | 28.7 ± 0.3 µM | more resistant | 19.3 ± 0.5% | > 100 µM | – | –
ligstroside aglycone [4a,b] | – | – | – | Very strong activity on lung cancer cell lines | – | – | – | – | more resistant | – | – | 39.3 ± 3.8 µM | 11.6 to 98.2 µM
C/C=C(/C=O)[C@@H](CC=O)CC(=O)OCCc1ccc(O)c(O)c1 [compound 2, oleacein] | – | – | – | Good/moderate activity on 9/16 cancer cell lines | – | > 25 µM | resistant | 28.2 ± 11.1 µM | – | – | – | – | –
